The experiment addresses T1, PDE4B2 (Homo sapiens, UniProt Q07343).
T1 construct: purchased BPS bioscience
Description: In vitro PDE4B2 enzyme inhibitory activity (AMP-Glo). It counts as biochemical.

Setting [1] is: PDE4B2 enzyme inhibition, read-out: PDE4B2 IC50.
Setting [2] is: read-out: IC50 values of PDE4B2 enzyme inhibition.

Like-named read-outs stand apart in the source and are kept apart here. A value given as a limit tells only on which side of the number the result lay.

T1 sequence (Q07343 1-564 isoform Q07343-2): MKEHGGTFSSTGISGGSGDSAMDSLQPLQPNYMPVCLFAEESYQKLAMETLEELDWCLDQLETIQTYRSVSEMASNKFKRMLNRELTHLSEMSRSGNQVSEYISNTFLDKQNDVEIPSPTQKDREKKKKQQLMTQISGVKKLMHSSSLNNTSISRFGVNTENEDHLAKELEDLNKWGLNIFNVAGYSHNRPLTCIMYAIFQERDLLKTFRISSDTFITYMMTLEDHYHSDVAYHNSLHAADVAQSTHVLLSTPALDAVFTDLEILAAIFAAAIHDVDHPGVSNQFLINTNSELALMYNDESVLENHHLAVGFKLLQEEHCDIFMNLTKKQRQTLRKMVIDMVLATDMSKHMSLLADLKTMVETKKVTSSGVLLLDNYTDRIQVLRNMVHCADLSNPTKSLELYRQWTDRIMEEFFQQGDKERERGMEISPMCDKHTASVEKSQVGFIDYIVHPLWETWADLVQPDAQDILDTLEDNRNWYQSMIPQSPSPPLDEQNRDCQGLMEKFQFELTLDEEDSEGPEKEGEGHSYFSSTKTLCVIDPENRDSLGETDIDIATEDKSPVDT
Description: 2.1.1 Preparing stock solutions of compounds in DMSO: Compound powders were dissolved in 100% DMSO to produce 10 mM stock solutions, and oscillated in a shaker until the compounds were completely dissolved.
2.1.3 Preparing working stock solutions: a) A solution of Roflumilast (reference compound) in DMSO was diluted to 60 μM, and then serially diluted 4-fold into 10 concentration gradients. B) The solutions of the test compounds in DMSO were diluted to 200 μM, and then serially diluted 3-fold. C) A 200× positive control (60 μM Roflumilast) and a 200× vehicle control (100% DMSO) were prepared. D) The assay plate was centrifuged at 1000 rpm for 1 minute.
(1) 20 nL of compound dilution solutions were transferred with Echo 550 into each well of the assay plate.
(2) The assay plate was sealed and centrifuged at 1000 rpm for 1 minute.
(3) 2×PDE4B2/PDE4D2 was prepared in an ice-cold PDE assay buffer.
(4) 2 μL of 2×PDE4B2/PDE4D2 was added to each well of the assay plate prepared in step 2.
(5) The assay plate was sealed and allowed to equilibrate at room temperature for 10 minutes.
(6) 2× Cyclic-3′,5′-AMP was prepared in a PDE assay buffer.
7) 2 μL of 2× Cyclic-3′,5′-AMP (prepared in step 6) was added to each well of the assay plate (prepared in step 5) to initiate the reaction. The plate was incubated at room temperature for 60 minutes.
8) 4 μL AMP-Glo Reagent I was added, and the plate was incubated at room temperature for 60 minutes.
9) 8 μL AMP detection reagent was added. The plate was incubated at room temperature for 60 minutes.
10) The RLU signal was read on an Envision 2105 plate reader.

In the case of `CS(=O)(=O)Nc1ccc2c(c1)CN(c1nc3c(c(NC4(CO)CCC4)n1)[S+]([O-])CC3)C2` (racemic) [Compound 31, (R/S)—N-(2-(4-((1-(hydroxymethyl)cyclobutyl)amino)-5-oxido-6,7-dihydrothieno[3,2-d]pyrimidin-2-yl)isoindolin-5-yl)methanesulfonamide], the IC50 under setting [1] is 2 to 5 nM.

Consider `COc1ccc2c(c1Cl)CN(c1nc3c(c(NC4(CO)CCC4)n1)[S+]([O-])CC3)C2` (racemic) [Compound 35, (R/S)-2-(4-chloro-5-methoxyisoindolin-2-yl)-4-((1-(hydroxymethyl)cyclobutyl)amino)-6,7-dihydrothieno[3,2-d]pyrimidine 5-oxide], for which the half-maximal inhibitory concentration (IC50) under setting [1] lay within 2 to 5 nM. Consider `COc1cc(C2(OC)CN(c3nc4c(c(NC5(CO)CCC5)n3)[S+]([O-])CC4)C2)ccc1Cl` (racemic) [Compound 79, (R/S)-2-(3-(4-chloro-3-methoxyphenyl)-3-methoxyazetidin-1-yl)-4-((1-(hydroxymethyl)cyclobutyl)amino)-6,7-dihydrothieno[3,2-d]pyrimidine 5-oxide], for which the IC50 under setting [1] was ≤ 2 nM and the IC50 under setting [2] was < 1 nM. Regarding `[O-][S+]1CCc2nc(N3CC(O)(c4ccc(Cl)c(F)c4)C3)nc(NC3(CO)CCC3)c21` (racemic) [Compound 80, (R/S)-2-(3-(4-chloro-3-fluorophenyl)-3-hydroxyazetidin-1-yl)-4-((1-(hydroxymethyl)cyclobutyl)amino)-6,7-dihydrothieno[3,2-d]pyrimidine 5-oxide], the IC50 under setting [1] was in the range of 2 to 5 nM. On the same count and under the same terms, the figure for `COc1cc(C2(O)CN(c3nc4c(c(NC5CCOCC5)n3)[S+]([O-])CC4)C2)ccc1Cl` (racemic) [Compound 81, (R/S)-2-(3-(4-chloro-3-methoxyphenyl)-3-hydroxyazetidin-1-yl)-4-((tetrahydro-2H-pyran-4-yl)amino)-6,7-dihydrothieno[3,2-d]pyrimidine 5-oxide] is 2 to 5 nM. Regarding `COC1(c2ccc(Cl)c(F)c2)CN(c2nc3c(c(NC4(CO)CCC4)n2)[S+]([O-])CC3)C1` (racemic) [Compound 82, (R/S)-2-(3-(4-chloro-3-fluorophenyl)-3-methoxyazetidin-1-yl)-4-((1-(hydroxymethyl)cyclobutyl)amino)-6,7-dihydrothieno[3,2-d]pyrimidine 5-oxide], the IC50 is ≤ 2 nM under setting [1] and < 1 nM under setting [2]. On the same counts, the results for `COC1(c2ccc(Cl)cc2)CN(c2nc3c(c(NC4(CO)CCC4)n2)[S+]([O-])CC3)C1` (racemic) [Compound 83, (R/S)-2-(3-(4-chlorophenyl)-3-methoxyazetidin-1-yl)-4-((1-(hydroxymethyl)cyclobutyl)amino)-6,7-dihydrothieno[3,2-d]pyrimidine 5-oxide] are ≤ 2 nM and < 1 nM. For `CC(C)(O)c1ccc2c(c1)CN(c1nc3c(c(NC4CCOCC4)n1)[S+]([O-])CC3)C2` (racemic) [Compound 84, (R/S)-2-(5-(2-hydroxypropan-2-yl)isoindolin-2-yl)-4-((tetrahydro-2H-pyran-4-yl)amino)-6,7-dihydrothieno[3,2-d]pyrimidine 5-oxide], the IC50 under setting [1] was ≤ 2 nM. The same measure, in the same setting: the figure for `[O-][S+]1CCc2nc(N3Cc4ccc(Cl)cc4C3)nc(NC3CCOCC3)c21` (racemic) [Compound 85, (R/S)-2-(5-chloroisoindolin-2-yl)-4-((tetrahydro-2H-pyran-4-yl)amino)-6,7-dihydrothieno[3,2-d]pyrimidine 5-oxide] is ≤ 2 nM. Turning to `COC1(c2ccc(Cl)c(F)c2)CN(c2nc3c(c(NC4CCOCC4)n2)[S+]([O-])CC3)C1` (racemic) [Compound 86, (R/S)-2-(3-(4-chloro-3-fluorophenyl)-3-methoxyazetidin-1-yl)-4-((tetrahydro-2H-pyran-4-yl)amino)-6,7-dihydrothieno[3,2-d]pyrimidine 5-oxide], the concentration for half-maximal inhibition (IC50) by setting is: under setting [1], ≤ 2 nM; under setting [2], < 1 nM.

As a reminder, the IC50 is the concentration that inhibits the measured activity by half.

The values are drawn from patent publication US20260242393A1, “Preparation Method for and Use of Dihydrothienopyrimidine Derivative” (Innovstone Therapeutics Limited, priority 2023, published 2026).
